“Also recorded” adds a separate entry of the source.
What was measured:
hESC-CM biowires (Hes2) [1] = type: cell-based, human
Description: After preculture for 7 days, biowires were randomly transferred to 6-well plates and cultured in StemPro-34 media in the absence or presence of Isoproterenol (100 nM), Angiotensin II (200 nM [17]) or Endothelin-1 (150 nM)(Sigma) for 7 days. This protocol was chosen to replicate the chronic treatment of mice as described. […] Isolated single cells were seeded on Matrigel-coated glass cover slips before cell area and calcium transient measurements were performed. Immunostaining and Fluorescence Microscopy. Immunostaining was performed using the following antibodies: mouse anti-cTNT (1:100, Thermo Scientific; MS-295-P1), mouse anti-α-actinin (1:200, Abcam, ab9465), anti-mouse-Alexa Fluor 488 (1:400, Invitrogen, A21202), anti-rabbit-TRITC (1:400, Invitrogen, 81-6114). DAPI was used to counterstain nuclei. Phalloidin Alexa Fluor 660 (1:1000, Invitrogen, A22285) was used to detect actin fibers. The stained cells were visualized using a fluorescence microscope (Leica CTR6000) and images captured using the Leica Application Suite software. For confocal microscopy cells were visualized using a fluorescence confocal microscope (Zeiss LSM-510). Transmission Electron Microscopy (TEM). Tissue was fixed with 4% Paraformaldehyde, 1% Glutaraldehyde in 0.1 M PBS for at least 1 hr and washed 3 times with PBS pH 7.2. Post-fixation was done with 1% Osmium Tetraoxide in 0.1 M PBS, pH 7.2 for 1 hr and dehydrated using ethanol series from 25 to 100%. Tissue was infiltrated using Epon resin and polymerized in plastic dishes at 40° C. for 48 hr. Tissue was stained with Uranyl Acetate and Lead Citrate after sectioning. Imaging was performed at Hitachi H-7000 transmission electron microscope.

[2] = tested on: human cardiac tissue strands (hESC, Hes2 derived cardiomyocytes); experiment: Biorod drug testing: tissue beating pattern and contractile force by polymer wire deflection; type: cell-based
Description: Cardiomyocytes were derived from human embryonic stem cell lines (hESC, Hes2). Embryoid bodies (EBs) were differentiated to the cardiovascular lineage and disassociated as previously described in Device 1 Methods. Before cell seeding, micro-well surface was rinsed with 5% (w/v) Pluronic Acid (Sigma P2443) and then air dried in the bio-safety cabinet. hESC derived cardiomyocytes were suspended at 200 million/ml (unless specified otherwise) in Collagen Type I based gel (3.0 mg/ml of rat tail collagen type I (BD Biosciences) neutralized by 1N NaOH and 10×M199 media as described by the manufacturer) with the supplements of […], 1% (v/v) HEPES, 10% (v/v) Matrigel (BD Biosciences), and […]. Suspended cardiomyocytes were then seeded into the cell culture channel (2.5 μl per well). After 30 min incubation at 37° C. to induce the gelation, appropriate media were added. After seeding, cells were kept in culture for 7 days to allow collagen matrix remodeling and assembly around the wires. Cardiac tissue strands were kept in culture for up to 21 days with media change every 2-3 days. Preferably, the tissue strands should be kept in culture for at least 2 weeks to allow for maturation; however there is no limitation on the maximum culture duration. Cardiac tissue strands were seeded to observe the stability and reproducibility of tissue in long term culture. After seeding, brightfield images (see FIG. 39A for an example) of the tissue strands were taken every day (n=3 per group) using optical microscope (Olympus CKX41) and the diameters of the tissue strands at four distinct locations were analyzed with imageJ (see FIG. 39B for an example). Tissue strand lengths were also analyzed with same method.
Tissue contractile behavior tracing and measurement was carried out. POMac is auto-fluorescent at a wide range of wavelenths; therefore the wires were imaged with a fluorescence microscope under DAPI channel (e.g. 461 nm wavelength) to trace the bending movements of the wires. The POMac is auto-fluorescent at a wide range of wavelengths, including under FITC and Tritc channels. Images were taken at 25 frames per second (fps) (see FIG. 39C). Image sequences were analyzed with ImageJ software using tracking plugin. To calculate the forces originated from cardiac tissues, beam deflection formula with uniformly distributed load in the middle section was used here. […] The engineered cardiac tissues were paced at 2 Hz frequency. From this image sequence, contraction and relaxation time of beating can be estimated. […] Tissue stretching wires can be considered uniformly distributed Load, Wo (Load per force bearing length), which can be calculated with displacement of center point of wires in image sequence, and F can be calculated as well. […] Briefly, entire beam length was L. Section of wire with tissue wrapping around it was experiencing load. Here, the load was assumed to be evenly distributed throughout this section, and Wo was load per length. […] The distance between side of the tissue and a well wall is a, which was assumed equal for both sides. The deflection at center point was y.
Drug testing was carried out.

[3] = tested on: hESC-derived CMs 3D tissues; type: cell-based, human
Description: Alternatively, to measure the force generated by the 3D engineered cardiac tissues, a bioreactor consisting of a PDMS tissue chamber capable of housing 8 micotissues was employed. […] Briefly, each well of the PDMS chamber had two posts which served as anchoring points for each cardiac tissue during gel compaction. Furthermore, by tracking a post's deflection, the force of contraction a cardiac tissue generated was determined. Cardiac tissues underwent 7 days of pre-culture followed by 7 days of treatment with endothelin-1, angiotensin II or isoproterenol. After the treatment, the contractile force of each cardiac tissue was determined by video recording, one at a time, the top surface of a post for each cardiac tissue while being paced at 0.5 or 1 Hz using CellSens software (Olympus). Each video was then exported as a series of Tiff images and opened in ImageJ. […] Using the method of superposition for a cantilever beam-partial uniform deflection, a point force was calculated and then normalized to the tissues cross sectional area (assumed circular) to determine the cardiac force per area.

[4] = tested on: hESC-derived CMs 3D tissues; experiment: Chronic drug exposure: cell viability in 3D tissues by live/dead staining; type: cell-based, human; conditions: vs non-treated controls
hESC-CM biowires (Hes2) [5] = experiment: Chronic drug exposure of biowires: quantitative RT-PCR of fetal gene program; type: cell-based, human; conditions: 7 days treatment: ISO 100 nM, Et-1 150 nM, AngII 200 nM, vs untreated control
Description: (§1) After preculture for 7 days, biowires were randomly transferred to 6-well plates and cultured in StemPro-34 media in the absence or presence of Isoproterenol (100 nM), Angiotensin II (200 nM [17]) or Endothelin-1 (150 nM)(Sigma) for 7 days. This protocol was chosen to replicate the chronic treatment of mice as described. […] Isolated single cells were seeded on Matrigel-coated glass cover slips before cell area and calcium transient measurements were performed.
Quantitative RT-PCR. RT-PCR was performed as previously described. Total RNA was prepared with the High Pure RNA Isolation Kit (Roche) and treated with RNase-free DNase (Roche). RNA was reverse transcribed into cDNA using random hexamers and Oligo (dT) with SuperScript VILO (Invitrogen). RT-qPCR was performed on a LightCycler 480 (Roche) using LightCycler 480 SYBR Green I Master (Roche). Expression levels were normalized to the housekeeping genes TATA box binding protein (TBP) or Glyceraldehyde 3-phosphate dehydrogenase (GAPDH).

hESC-CM biowires (Hes2) [6] = experiment: Chronic drug exposure: conduction velocity by optical mapping upon point stimulation; type: cell-based, human; conditions: point stimulation at the end of cultivation, vs non-treated controls
Description: Optical Mapping. […] Imaging was performed at 200 frames/s. […] Data analysis was performed using BrainVision software (Scimedia).

[7] = tested on: Hes2 hESC derived cardiomyocytes; type: cell-based, human; conditions: single cells dissociated at end of 7 days treatment, cardiac troponin T staining
Description: as §1

hESC-CM biowires (Hes2) [8] = experiment: Chronic drug exposure: ELISA of soluble BNP in conditioned media; type: cell-based, human
Description: After preculture for 7 days, biowires were randomly transferred to 6-well plates and cultured in StemPro-34 media in the absence or presence of Isoproterenol (100 nM), Angiotensin II (200 nM [17]) or Endothelin-1 (150 nM)(Sigma) for 7 days. This protocol was chosen to replicate the chronic treatment of mice as described. […] Isolated single cells were seeded on Matrigel-coated glass cover slips before cell area and calcium transient measurements were performed. ELISA. Quantification of soluble BNP from the conditioned media was performed using commercially available ELISA kits.

[9] = tested on: hESC-derived cardiomyocyte tissue strands; experiment: NO treatment of perfusable human cardiac tissue strands, beating activity by image analysis; type: cell-based; conditions: 24 hr NO treatment by perfusion of 200 mM SNP
Description: NO treatment of human cardiac tissue strands was carried out. On day 7, the NO treatment of human cardiac tissue strand was initiated by perfusing the 200 mM SNP solution and the peristaltic pump was stopped once the SNP solution was perfused through the tubing. The beating activities of the human cardiac tissue strands were recorded at 16.67 frames/second before treatment and 24 hr post-treatment by Olympus IX81 while the tissue strands were kept at 37° C. The beating activities of the human cardiac tissue strands were quantified by the image analysis method described by Sage et al^28. In brief, the movements of one spot at the same location on the human cardiac tissue strand before and after the NO treatment were characterized.

[10] = tested on: hESC-derived cardiomyocyte tissue strands; experiment: α-actinin immunostaining and confocal microscopy of NO-treated tissue strands; type: cell-based, human; conditions: NO treatment by perfusion, vs control tissue strands
Description: Tissue strands were fixed with 4% parafornaldehyde, permeablized by 0.25% Triton X-100, and blocked by 10% bovine serum albumin (BSA). Immunostaining was performed using the following antibodies: mouse anti-cardiac Troponin T (cTnT) (Abcam; 1:100), mouse anti-α-actinin (Abcam; 1:200) and anti-rabbit-TRITC (Invitrogen; 1:200), anti-mouse-TRITC (Jackson Immuno Research; 1:200). Nuclei were counterstained with 4′,6-diamidino-2-phenylindole (DAPI) (Biotium; 1:100). Phalloidin-Alexa 660 (Introgen; 1:600) was used to stain F-actin fibers. For confocal microscopy, the stained cardiac tissue strands were visualized under an inverted confocal microscope (Olympus IX81) or an upright confocal microscope (Zeiss LSM 510).
NO treatment of human cardiac tissue strands was carried out. On day 7, the NO treatment of human cardiac tissue strand was initiated by perfusing the 200 mM SNP solution and the peristaltic pump was stopped once the SNP solution was perfused through the tubing. The beating activities of the human cardiac tissue strands were recorded at 16.67 frames/second before treatment and 24 hr post-treatment by Olympus IX81 while the tissue strands were kept at 37° C. The beating activities of the human cardiac tissue strands were quantified by the image analysis method described by Sage et al^28. […]

SMILES	contractile apparatus (transmission electron microscopy) (hESC-CM biowires (Hes2) [1])	tissue contractile forces normalized to forces before drug addition ([2]; 100 nM)	tissue contractile forces normalized to forces before drug addition ([2]; 1 μM)	tissue contractile forces normalized to forces before drug addition ([2]; 10 μM)	response of human cardiac tissues to well-known drugs ([2]; summary statement)	force of contraction [3]	cell viability (live/dead staining) [4]	ANF and BNP gene expression (fetal gene program) (hESC-CM biowires (Hes2) [5])	ANF and BNP gene expression (fetal gene program) (hESC-CM biowires (Hes2) [5]; listed as Isoproterenol)	conduction velocity (hESC-CM biowires (Hes2) [6])	increase in cell size [7] [%]	BNP in the conditioned media (hESC-CM biowires (Hes2) [8]; chronic treatment)	increase in the secretion of BNP (hESC-CM biowires (Hes2) [8]; day 2 post-treatment, media conditioned for 48 h) [fold]	increase of BNP in the media (hESC-CM biowires (Hes2) [8]; day 7, media conditioned for 24 h) [%]	spontaneous beating of human cardiac tissue strands ([9]; vs basal level)	beating frequency after NO treatment normalized to the basal level ([9]; n=3) [%]	α-actinin structure (cytoskeleton) of cardiomyocytes [10]
CC(C)NCC(O)c1ccc(O)c(O)c1 (centres unmarked) [ISO, Isoproterenol]	significant absence of distinct Z-disks and the lack of a defined sarcomere structure	positive inotropic action	positive inotropic action	slight negative inotropic effect	responded appropriately	significantly reduced force of contraction	no differences	significantly induced	induction of brain natriuretic peptide (BNP) and atrial natriuretic factor (ANF) gene expression	the same	35	BNP can also be found in the conditioned media	2.5	70			
[N]=O [NO, nitric oxide]															significantly slowed down the beating	74±3	disrupted α-actinin structure; also recorded: overall punctate pattern

From patent publication US12158464B2, “Methods for modeling disease tissue using three-dimensional tissue systems” (priority 2013, dated 2024)
